Assay results reported in ChEMBL document CHEMBL2331451, “Discovery of (1R,2R)-N-(4-(6-isopropylpyridin-2-yl)-3-(2-methyl-2H-indazol-5-yl)isothiazol-5-yl)-2-methylcyclopropanecarboxamide, a potent and orally efficacious mGlu5 receptor negative allosteric modulator” (Bioorg Med Chem Lett, 2013).
Active and inactive are the calls of the source. The calls are words filed in the database; no cut-off is given here.

Legend:
[1] = target: Metabotropic glutamate receptor 5 (Homo sapiens, UniProt P41594); test: Negative allosteric modulation of human recombinant mGlu5 receptor expressed in Syrian hamster AV12 cells assessed as receptor-mediated changes in intracellular calcium concentration by FLIPR assay; format: functional, cell-based
Chain of Metabotropic glutamate receptor 5 (Homo sapiens, UniProt P41594) (P41594 whole entry): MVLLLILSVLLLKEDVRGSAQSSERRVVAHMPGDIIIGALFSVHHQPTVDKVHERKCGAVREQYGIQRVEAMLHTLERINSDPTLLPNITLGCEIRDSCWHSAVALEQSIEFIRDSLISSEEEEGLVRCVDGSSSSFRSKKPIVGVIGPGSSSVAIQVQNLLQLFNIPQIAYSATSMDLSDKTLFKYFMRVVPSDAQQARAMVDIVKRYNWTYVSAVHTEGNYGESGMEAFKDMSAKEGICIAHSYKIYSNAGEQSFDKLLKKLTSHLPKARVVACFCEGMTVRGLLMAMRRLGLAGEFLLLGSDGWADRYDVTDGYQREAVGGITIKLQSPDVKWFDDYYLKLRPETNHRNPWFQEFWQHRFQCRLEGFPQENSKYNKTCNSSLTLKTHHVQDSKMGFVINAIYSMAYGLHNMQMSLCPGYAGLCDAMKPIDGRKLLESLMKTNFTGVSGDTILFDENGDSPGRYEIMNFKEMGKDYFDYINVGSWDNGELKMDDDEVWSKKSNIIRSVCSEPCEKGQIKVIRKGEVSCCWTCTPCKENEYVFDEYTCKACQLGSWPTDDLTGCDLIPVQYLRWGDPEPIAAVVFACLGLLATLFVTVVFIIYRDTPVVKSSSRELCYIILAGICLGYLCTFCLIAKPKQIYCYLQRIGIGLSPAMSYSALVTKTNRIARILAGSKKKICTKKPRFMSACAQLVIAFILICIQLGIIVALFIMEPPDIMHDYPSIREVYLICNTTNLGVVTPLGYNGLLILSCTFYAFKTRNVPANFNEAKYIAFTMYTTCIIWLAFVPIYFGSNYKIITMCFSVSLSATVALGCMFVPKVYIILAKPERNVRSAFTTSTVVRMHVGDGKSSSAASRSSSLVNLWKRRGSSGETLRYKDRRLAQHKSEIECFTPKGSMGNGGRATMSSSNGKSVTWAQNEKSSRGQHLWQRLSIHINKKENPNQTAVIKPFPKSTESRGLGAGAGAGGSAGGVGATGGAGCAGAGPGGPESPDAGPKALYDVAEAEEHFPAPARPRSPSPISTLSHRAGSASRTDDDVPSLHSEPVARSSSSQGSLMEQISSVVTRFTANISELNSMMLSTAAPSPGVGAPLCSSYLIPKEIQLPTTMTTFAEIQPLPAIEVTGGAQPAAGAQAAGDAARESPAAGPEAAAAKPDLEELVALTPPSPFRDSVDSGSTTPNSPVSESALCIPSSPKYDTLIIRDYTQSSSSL

[2] = target: Metabotropic glutamate receptor 1 (Homo sapiens, UniProt Q13255); test: Negative allosteric modulation of human recombinant mGlu1 receptor expressed in Syrian hamster AV12 cells assessed as receptor-mediated changes in intracellular calcium concentration by FLIPR assay; format: functional, cell-based
Chain of Metabotropic glutamate receptor 1 (Q13255 whole entry): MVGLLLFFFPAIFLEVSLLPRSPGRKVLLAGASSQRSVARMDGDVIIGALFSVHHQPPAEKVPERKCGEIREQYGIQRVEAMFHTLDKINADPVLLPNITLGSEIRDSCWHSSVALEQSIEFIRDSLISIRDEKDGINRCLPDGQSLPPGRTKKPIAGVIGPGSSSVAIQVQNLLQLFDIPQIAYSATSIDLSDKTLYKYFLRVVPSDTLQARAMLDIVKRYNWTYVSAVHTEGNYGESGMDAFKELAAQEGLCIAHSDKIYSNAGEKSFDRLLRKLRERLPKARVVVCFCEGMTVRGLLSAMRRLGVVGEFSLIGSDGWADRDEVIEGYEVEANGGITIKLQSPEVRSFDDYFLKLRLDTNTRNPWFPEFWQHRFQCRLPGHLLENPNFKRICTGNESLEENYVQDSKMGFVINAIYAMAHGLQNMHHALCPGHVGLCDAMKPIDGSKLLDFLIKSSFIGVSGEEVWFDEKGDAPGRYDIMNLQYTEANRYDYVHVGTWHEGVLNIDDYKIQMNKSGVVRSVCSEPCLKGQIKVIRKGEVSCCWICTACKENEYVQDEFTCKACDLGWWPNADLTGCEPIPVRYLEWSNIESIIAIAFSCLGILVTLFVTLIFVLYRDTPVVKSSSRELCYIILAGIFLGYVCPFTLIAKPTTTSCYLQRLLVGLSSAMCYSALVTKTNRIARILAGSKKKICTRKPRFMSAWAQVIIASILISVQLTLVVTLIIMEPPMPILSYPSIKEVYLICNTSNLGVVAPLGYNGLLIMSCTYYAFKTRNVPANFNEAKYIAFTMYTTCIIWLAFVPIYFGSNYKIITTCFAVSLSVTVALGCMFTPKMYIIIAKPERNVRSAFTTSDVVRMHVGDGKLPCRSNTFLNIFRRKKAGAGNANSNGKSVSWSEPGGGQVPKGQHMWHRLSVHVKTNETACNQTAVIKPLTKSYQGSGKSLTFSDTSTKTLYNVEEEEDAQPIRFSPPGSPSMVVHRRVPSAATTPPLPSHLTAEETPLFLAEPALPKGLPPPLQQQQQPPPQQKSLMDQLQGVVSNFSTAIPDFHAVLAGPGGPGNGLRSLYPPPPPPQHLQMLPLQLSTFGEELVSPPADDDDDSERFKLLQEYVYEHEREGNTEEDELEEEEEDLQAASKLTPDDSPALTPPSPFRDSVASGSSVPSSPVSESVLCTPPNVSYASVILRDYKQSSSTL

[3] = species on record: Homo sapiens; test: Selectivity ratio of IC50 for human recombinant mGlu1 receptor to IC50 for human recombinant mGlu5 receptor
[4] = Drug uptake in Harlan Sprague-Dawley rat brain at 10 mg/kg, po after 2 hrs; format: ADME, organism-based; design: dose 10 mg/kg, route oral; conditions: read-out: Drug uptake
[5] = Cmax in Harlan Sprague-Dawley rat at 1.5 mg/kg, po; format: ADME, organism-based; design: dose 1.5 mg/kg, route oral; conditions: in vivo
[6] = system: Rattus norvegicus; test: Ex vivo receptor occupancy of mGlu5 receptor in Harlan Sprague-Dawley rat brain at 10 mg/kg, po after 24 hrs; format: functional
[7] = Drug uptake in Harlan Sprague-Dawley rat brain at 10 mg/kg, po after 24 hrs; format: ADME, organism-based; design: dose 10 mg/kg, route oral; conditions: read-out: Drug uptake
[8] = target: Metabotropic glutamate receptor 5 (Rattus norvegicus, UniProt P31424); test: Negative allosteric modulation of rat mGlu5 receptor
Chain of Metabotropic glutamate receptor 5 (Rattus norvegicus, UniProt P31424) (P31424 whole entry): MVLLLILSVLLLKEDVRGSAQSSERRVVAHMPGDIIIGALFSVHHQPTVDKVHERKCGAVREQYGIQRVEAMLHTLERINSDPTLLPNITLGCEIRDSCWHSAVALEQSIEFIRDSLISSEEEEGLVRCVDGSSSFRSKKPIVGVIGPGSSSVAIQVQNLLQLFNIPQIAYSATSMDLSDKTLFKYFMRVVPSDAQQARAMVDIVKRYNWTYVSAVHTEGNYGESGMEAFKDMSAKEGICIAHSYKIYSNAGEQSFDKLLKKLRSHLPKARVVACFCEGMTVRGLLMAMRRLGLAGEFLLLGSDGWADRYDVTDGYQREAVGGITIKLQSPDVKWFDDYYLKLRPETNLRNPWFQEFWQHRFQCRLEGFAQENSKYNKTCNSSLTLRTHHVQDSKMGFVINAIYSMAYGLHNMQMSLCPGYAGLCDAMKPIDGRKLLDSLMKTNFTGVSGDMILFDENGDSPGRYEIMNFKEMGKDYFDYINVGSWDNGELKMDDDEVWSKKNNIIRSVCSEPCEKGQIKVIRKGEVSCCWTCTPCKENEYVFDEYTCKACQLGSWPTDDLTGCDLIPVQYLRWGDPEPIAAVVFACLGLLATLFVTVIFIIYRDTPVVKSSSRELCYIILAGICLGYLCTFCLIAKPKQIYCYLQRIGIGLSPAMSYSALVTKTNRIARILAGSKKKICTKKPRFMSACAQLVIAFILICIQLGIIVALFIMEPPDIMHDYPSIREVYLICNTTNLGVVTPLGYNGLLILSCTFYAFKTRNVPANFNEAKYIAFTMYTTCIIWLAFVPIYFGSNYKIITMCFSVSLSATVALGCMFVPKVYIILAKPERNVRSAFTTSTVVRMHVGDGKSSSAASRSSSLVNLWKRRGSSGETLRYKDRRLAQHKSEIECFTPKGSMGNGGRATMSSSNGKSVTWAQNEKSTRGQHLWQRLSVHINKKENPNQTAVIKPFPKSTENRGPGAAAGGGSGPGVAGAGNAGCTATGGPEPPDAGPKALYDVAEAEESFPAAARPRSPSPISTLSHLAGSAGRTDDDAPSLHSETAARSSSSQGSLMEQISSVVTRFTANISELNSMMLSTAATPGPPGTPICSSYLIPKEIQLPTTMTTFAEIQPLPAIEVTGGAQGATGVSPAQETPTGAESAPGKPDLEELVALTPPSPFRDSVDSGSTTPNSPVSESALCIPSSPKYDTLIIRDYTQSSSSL

[9] = system: Rattus norvegicus; test: Ex vivo receptor occupancy of mGlu5 receptor in po dosed Harlan Sprague-Dawley rat brain; format: functional
[10] = Volume of distribution in Harlan Sprague-Dawley rat at 1.5 mg/kg, po and 1 mg/kg, iv; format: ADME, organism-based; conditions: in vivo
[11] = Elimination half life in Harlan Sprague-Dawley rat at 1.5 mg/kg, po; format: ADME, organism-based; design: dose 1.5 mg/kg, route oral; conditions: in vivo, read-out: beta t1/2 (converted)
[12] = system: Rattus norvegicus; test: Analgesic activity in po dosed fasted Harlan Sprague-Dawley rat assessed as inhibition of late phase of formalin- induced paw-licking pain behavior; format: functional
[13] = system: Rattus norvegicus; test: Ex vivo receptor occupancy of mGlu5 receptor in Harlan Sprague-Dawley rat brain at 10 mg/kg, po after 6 hrs; format: functional
[14] = system: Rattus norvegicus; test: Ex vivo receptor occupancy of mGlu5 receptor in Harlan Sprague-Dawley rat brain at 10 mg/kg, po after 4 hrs; format: functional
[15] = Elimination half life in Harlan Sprague-Dawley rat at 1 mg/kg, iv; format: ADME, organism-based; design: dose 1 mg/kg, route intravenous; conditions: in vivo, read-out: beta t1/2 (converted)
[16] = system: Rattus norvegicus; test: Ex vivo receptor occupancy of mGlu1 receptor in Harlan Sprague-Dawley rat brain up to 10 mg/kg, po; format: functional, organism-based; design: dose 10 mg/kg
[17] = system: Rattus norvegicus; test: Ex vivo receptor occupancy of mGlu5 receptor in Harlan Sprague-Dawley rat brain at 10 mg/kg, po after 2 hrs; format: functional
[18] = system: Rattus norvegicus; test: Ex vivo receptor occupancy of mGlu5 receptor in Harlan Sprague-Dawley rat brain at 10 mg/kg, po after 0.5 hrs; format: functional
[19] = target: T1, 5-hydroxytryptamine receptor 2B (Homo sapiens, UniProt P41595); conditions: 1 uM
T1 sequence (P41595 whole entry): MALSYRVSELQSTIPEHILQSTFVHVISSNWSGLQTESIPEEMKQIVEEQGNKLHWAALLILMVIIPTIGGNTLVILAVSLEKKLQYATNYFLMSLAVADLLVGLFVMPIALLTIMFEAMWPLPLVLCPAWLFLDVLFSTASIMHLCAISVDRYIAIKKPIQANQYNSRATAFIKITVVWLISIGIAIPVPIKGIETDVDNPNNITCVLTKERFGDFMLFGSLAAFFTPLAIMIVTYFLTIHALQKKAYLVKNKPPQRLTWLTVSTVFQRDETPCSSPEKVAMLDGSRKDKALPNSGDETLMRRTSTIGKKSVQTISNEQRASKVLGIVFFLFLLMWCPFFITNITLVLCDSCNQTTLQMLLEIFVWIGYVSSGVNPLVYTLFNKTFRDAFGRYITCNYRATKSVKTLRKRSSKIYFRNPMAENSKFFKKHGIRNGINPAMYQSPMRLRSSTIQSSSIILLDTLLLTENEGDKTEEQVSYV
Description: Inhibition of 5HT2B receptor (unknown origin) at 1 uM

[20] = Drug uptake in Harlan Sprague-Dawley rat brain at 10 mg/kg, po after 6 hrs; format: ADME, organism-based; design: dose 10 mg/kg, route oral; conditions: read-out: Drug uptake
[21] = Drug uptake in Harlan Sprague-Dawley rat brain at 10 mg/kg, po after 1 hr; format: ADME, organism-based; design: dose 10 mg/kg, route oral; conditions: read-out: Drug uptake
[22] = Drug uptake in Harlan Sprague-Dawley rat brain at 10 mg/kg, po after 0.5 hrs; format: ADME, organism-based; design: dose 10 mg/kg, route oral; conditions: read-out: Drug uptake
[23] = AUC (0 to 24 hrs) in Harlan Sprague-Dawley rat at 1.5 mg/kg, po; format: ADME, organism-based; design: time < 24 hr, dose 1.5 mg/kg, route oral; conditions: plasma
[24] = Clearance in Harlan Sprague-Dawley rat at 1.5 mg/kg, po and 1 mg/kg, iv; format: ADME, organism-based; conditions: in vivo
[25] = system: Rattus norvegicus; test: Ex vivo receptor occupancy of mGlu5 receptor in Harlan Sprague-Dawley rat brain at 10 mg/kg, po after 1 hr; format: functional
[26] = Drug uptake in Harlan Sprague-Dawley rat brain at 10 mg/kg, po after 4 hrs; format: ADME, organism-based; design: dose 10 mg/kg, route oral; conditions: read-out: Drug uptake
[27] = Tmax in Harlan Sprague-Dawley rat at 1.5 mg/kg, po; format: ADME, organism-based; design: dose 1.5 mg/kg, route oral; conditions: in vivo
[28] = Bioavailability in Harlan Sprague-Dawley rat at 1.5 mg/kg, po and 1 mg/kg, iv; format: ADME, organism-based; conditions: in vivo
[29] = target: T1, 5-hydroxytryptamine receptor 2B; test: Binding affinity to 5HT2B receptor (unknown origin)
[30] = species on record: Rattus norvegicus; test: Neurotoxicity in Harlan Sprague-Dawley rat assessed as minimal motor impairment up to 4 hrs by rotorod test; format: toxicity, organism-based; conditions: in vivo

C[C@@H]1C[C@H]1C(=O)Nc1snc(-c2ccc3nn(C)cc3c2)c1-c1cccc(N(C)C)n1
IC50 [1]: 20 nM
IC50 [2]: 9540 nM
Ratio IC50 [3]: 477

COc1cccc(-c2c(-c3ccc4nn(C)cc4c3)nsc2NC(=O)[C@@H]2C[C@H]2C)n1
IC50 [1]: 36 nM
IC50 [2]: 190 nM
Ratio IC50 [3]: 5

C[C@@H]1C[C@H]1C(=O)Nc1snc(-c2ccc3nn(C)cc3c2)c1-c1cccc(C2CC2)n1
IC50 [1]: 30 nM
IC50 [2]: 735 nM
Ratio IC50 [3]: 25

CC(C)c1cccc(-c2c(-c3ccc4nn(C)cc4c3)nsc2NC(=O)C2CC2)n1
IC50 [1]: 39 nM
IC50 [2]: 397 nM
Ratio IC50 [3]: 10

C[C@@H]1C[C@H]1C(=O)Nc1snc(-c2ccc3nn(C)cc3c2)c1-c1cccc(C2CCC2)n1
IC50 [1]: 54 nM
IC50 [2]: 687 nM
Ratio IC50 [3]: 13

C[C@@H]1C[C@H]1C(=O)Nc1snc(-c2ccc3nn(C)cc3c2)c1-c1cccc(CF)n1
IC50 [1]: 50 nM
IC50 [2]: 1300 nM
Ratio IC50 [3]: 26

CNc1cccc(-c2c(-c3ccc4nn(C)cc4c3)nsc2NC(=O)[C@@H]2C[C@H]2C)n1
IC50 [1]: 62 nM
IC50 [2]: 1590 nM
Ratio IC50 [3]: 26

CC[C@@H]1C[C@H]1C(=O)Nc1snc(-c2ccc3nn(C)cc3c2)c1-c1cccc(N(C)C)n1
IC50 [1]: 35 nM
IC50 [2]: > 12500 nM
Ratio IC50 [3]: > 357

CC(C)c1cccc(-c2c(-c3ccc4nn(C)cc4c3)nsc2NC(=O)[C@@H]2C[C@H]2C)n1.Cl
concentration at 2 h [4]: 2850 nM
Cmax [5]: 255 ng/mL
Activity [6]: 58.9%
concentration at 24 h [7]: 2340 nM
IC50 [8]: 167 nM
Activity [9]: Dose-dependent effect
ED50 [9]: 2.1 mg/kg
IC50 [1]: 19 nM
Vd [10]: 2.7 L/kg
half-life [11]: 4.6 h
ED50 [12]: 25.5 mg/kg
inhibition [12]: Dose-dependent effect
Activity [13]: 62.5%
Activity [14]: 67.7%
half-life [15]: 4.9 h
Activity [16]: inactive
IC50 [2]: 644 nM
Activity [17]: 74.3%
Activity [18]: 37.8%
inhibition [19]: 56%
concentration at 6 h [20]: 2980 nM
concentration at 1 h [21]: 2230 nM
concentration at 0.5 h [22]: 1240 nM
AUC(0-t) at 24 h [23]: 1570 ng·h/mL
clearance [24]: 8.4 mL/min/kg
Activity [25]: 57.8%
concentration at 4 h [26]: 2590 nM
Tmax [27]: 2 h
bioavailability [28]: 56.5%
Ki [29]: 3160 nM
Activity [30]: Non-toxic
Ratio IC50 [3]: 34

Cc1cccc(-c2c(-c3ccc4nn(C)cc4c3)nsc2NC(=O)[C@@H]2C[C@H]2C)n1
IC50 [1]: 45 nM
IC50 [2]: 2210 nM
Ratio IC50 [3]: 49

C[C@@H]1C[C@H]1C(=O)Nc1snc(-c2ccc3nn(C)cc3c2)c1-c1cccc(C(F)F)n1
IC50 [1]: 81 nM
IC50 [2]: 1020 nM
Ratio IC50 [3]: 13

CCc1cccc(-c2c(-c3ccc4nn(C)cc4c3)nsc2NC(=O)[C@@H]2C[C@H]2C)n1
IC50 [1]: 10 nM
IC50 [2]: 279 nM
Ratio IC50 [3]: 28

COc1ccc(-c2nsc(NC(=O)[C@@H]3C[C@H]3C)c2C)cc1
Ratio IC50 [3]: > 20

C[C@@H]1C[C@H]1C(=O)Nc1snc(-c2ccc3nn(C)cc3c2)c1-c1ccccn1
IC50 [1]: 29 nM
IC50 [2]: 238 nM
Ratio IC50 [3]: 8

CC(C)c1cccc(-c2c(-c3ccc4n[nH]cc4c3)nsc2NC(=O)[C@@H]2C[C@H]2C)n1
IC50 [1]: 45 nM
IC50 [2]: 4570 nM
Ratio IC50 [3]: 102

C[C@@H]1C[C@H]1C(=O)Nc1snc(-c2ccc3nn(C)cc3c2)c1-c1cccc(C2CCCC2)n1
IC50 [1]: 27 nM
IC50 [2]: 891 nM
Ratio IC50 [3]: 33

C[C@@H]1C[C@H]1C(=O)Nc1snc(-c2ccc3n[nH]cc3c2)c1-c1cccc(N(C)C)n1
IC50 [1]: 47 nM
IC50 [2]: > 12500 nM
Ratio IC50 [3]: > 266

CCCc1cccc(-c2c(-c3ccc4nn(C)cc4c3)nsc2NC(=O)[C@@H]2C[C@H]2C)n1
IC50 [1]: 20 nM
IC50 [2]: 409 nM
Ratio IC50 [3]: 20

CCc1cccc(-c2c(-c3ccc4n[nH]cc4c3)nsc2NC(=O)[C@@H]2C[C@H]2C)n1
IC50 [1]: 36 nM
IC50 [2]: 3110 nM
Ratio IC50 [3]: 86
